Measured values reported in patent US11419921B2, “Methods of treating neurological disorders” (EnClear Therapies, Inc., priority 2018, dated 2022).

Tests used:
(GR)10 [1] = experiment: (GR)10 digestion with immobilized proteases (NHS-activated agarose resin) in PBS; type: biochemical; conditions: normalized
Procedure: (§1) Protease solutions were prepared at 2 mg/mL in sterile PBS with calcium, magnesium and 200 μL ([…]) were applied to 100 μL of pre-washed NHS-activated agarose resin in 0.8 mL centrifuge columns. Reactions were left 1.5 hour at room temperature with end-to-end mixing, after which resins were washed with 12 resin volumes of PBS. Unreacted sites were blocked with 500 μL of 1M ethanolamine for 15 minutes at room temperature and resins were further washed with 24 resin volumes. Resins were stored at 4 degrees in 500 μL of PBS containing 0.05% sodium azide as preservative.
110 μL of 50 μM (GR)10 dipeptide repeats prepared in PBS were added to each immobilized protease and incubated 5 minutes at room temperature with end-to-end mixing. Columns were spun down 1 minute at 1,000 Xg to recover digested GR dipeptides. Columns were washed with 110 μL of PBS to increase (GR)10 recovery. This procedure was repeated with 60 minutes digestion time. 100 μL of each samples were transferred to a new tube and 5 μL of 10% TFA followed by 300 μL of Dilution Solution were added. The reaction mixtures were analyzed by LC/MS to determine the concentration of GR repeats of different lengths.

(GR)10 [2] = experiment: (GR)10 digestion with immobilized proteases in human cerebrospinal fluid (CSF); type: biochemical; conditions: immobilized enzyme
Procedure: as §1
200 μM of (GR)10 were diluted in human cerebrospinal fluid (CSF) and 400 μL were applied to each immobilized proteases. The reaction was incubated 5 minutes at room temperature with end-to-end mixing. Columns were spun down 1 minute at 1,000 Xg to recover digested GR dipeptides. Columns were washed with 12 resin volumes of PBS. The procedure was repeated with 60 minutes digestion time. 100 μL of each samples were transferred to a clean tube, flash-frozen and subsequently used for LC/MS quantification of GR repeats of different lengths. The remaining 300 μL of each samples were flash-frozen and used to assess neuron toxicity.
(GR)10 was digested with exemplary immobilized enzymes as described above in the subsection titled “(GR)10 digestion with immobilized proteases in CSF” of Example 3. Clostripain experiments were conducted with and without DTT activation (no DTT during digestion). The results obtained after 5 and 60 minutes of reaction time are presented in Table 25 and shown in FIG. 5 (commercial and in-house immobilized trypsin), FIG. 6 (immobilized elastase, FIG. 7A (immobilized clostripain without DTT) and FIG. 7 (immobilized clostripain with 2.5 mM DTT).

[3] = resin wash from 60 min reaction

Elastase: protease that cleaves at the carboxyl side of small hydrophobic amino acids; in Table 22 also immobilized on agarose resin
200.3 µM: (GR)1 (normalized uM) ((GR)10 [2]; 60 min reaction)
48.1 µM: (GR)1 ((GR)10 [1]; immobilized - 60 min reaction)
13.8 µM: (GR)1 ((GR)10 [1]; resin wash from 5 min reaction)
20.7 µM: (GR)3 (normalized uM) ((GR)10 [2]; 5 min reaction)
29.4 µM: (GR)2 (normalized uM) ((GR)10 [2]; 5 min reaction)
4.8 µM: (GR)2 ((GR)10 [1]; Immobilized - 5 min reaction)
33.1 µM: (GR)1 ((GR)10 [1]; Immobilized - 5 min reaction)
0.0 µM: (GR)3 ((GR)10 [1]; Immobilized - 5 min reaction) | (GR)4 ((GR)10 [1]; Immobilized - 5 min reaction) | (GR)5 ((GR)10 [1]; Immobilized - 5 min reaction) | (GR)6 ((GR)10 [1]; Immobilized - 5 min reaction) | (GR)8 ((GR)10 [1]; Immobilized - 5 min reaction) | (GR)10 ((GR)10 [1]; Immobilized - 5 min reaction) | (GR)2 ((GR)10 [1]; immobilized - 60 min reaction) | (GR)3 ((GR)10 [1]; immobilized - 60 min reaction) | (GR)4 ((GR)10 [1]; immobilized - 60 min reaction) | (GR)5 ((GR)10 [1]; immobilized - 60 min reaction) | (GR)6 ((GR)10 [1]; immobilized - 60 min reaction) | (GR)8 ((GR)10 [1]; immobilized - 60 min reaction) | (GR)10 ((GR)10 [1]; immobilized - 60 min reaction) | (GR)2 ((GR)10 [1]; resin wash from 5 min reaction) | (GR)3 ((GR)10 [1]; resin wash from 5 min reaction) | (GR)4 ((GR)10 [1]; resin wash from 5 min reaction) | (GR)5 ((GR)10 [1]; resin wash from 5 min reaction) | (GR)6 ((GR)10 [1]; resin wash from 5 min reaction) | (GR)8 ((GR)10 [1]; resin wash from 5 min reaction) | (GR)10 ((GR)10 [1]; resin wash from 5 min reaction) | (GR)2 ((GR)10 [1]; [3]) | (GR)3 ((GR)10 [1]; [3]) | (GR)4 ((GR)10 [1]; [3]) | (GR)5 ((GR)10 [1]; [3]) | (GR)6 ((GR)10 [1]; [3]) | (GR)8 ((GR)10 [1]; [3]) | (GR)10 ((GR)10 [1]; [3]) | (GR)6 (normalized uM) ((GR)10 [2]; 5 min reaction) | (GR)8 (normalized uM) ((GR)10 [2]; 5 min reaction) | (GR)10 (normalized uM) ((GR)10 [2]; 5 min reaction) | (GR)3 (normalized uM) ((GR)10 [2]; 60 min reaction) | (GR)4 (normalized uM) ((GR)10 [2]; 60 min reaction) | (GR)5 (normalized uM) ((GR)10 [2]; 60 min reaction) | (GR)6 (normalized uM) ((GR)10 [2]; 60 min reaction) | (GR)8 (normalized uM) ((GR)10 [2]; 60 min reaction) | (GR)10 (normalized uM) ((GR)10 [2]; 60 min reaction)
18.5 µM: (GR)1 ((GR)10 [1]; [3])
6 µM: (GR)2 (normalized uM) ((GR)10 [2]; 60 min reaction)
57.4 µM: (GR)1 (normalized uM) ((GR)10 [2]; 5 min reaction)
22 µM: (GR)4 (normalized uM) ((GR)10 [2]; 5 min reaction)
10.5 µM: (GR)5 (normalized uM) ((GR)10 [2]; 5 min reaction)
